In article PMC6201930 (PLoS ONE, 2018):
Where “and” joins values, the source holds several entries; their conditions need not be identical. Equal values may be shown once. Entries after “also recorded” stand apart in the source; their conditions may differ. Read-outs that look alike come from different tables or passages of the source.

Experiments:
Male Sprague Dawley rats = assay: Fourteen day safety study in rats; type: in vivo; conditions: for Animals completed study: 6 rats per group; for hematology: numbers of red and white blood cells or platelets vs vehicle: 14 days dosing, all dose groups; for accumulation over time (toxicokinetics): Day 1 and Day 14; for histopathology of liver and bone marrow: end of the 14 day dosing period; for urine lipocalin / urine albumin, clusterin, cystatin C and osteopontin: highest dose groups: G418 20 mg/kg, gentamicin X2 40 mg/kg; for urine albumin, clusterin, cystatin C and osteopontin: normalized to urinary creatinine
Method: To evaluate in vivo safety we administered the compounds daily to rats (n = 6 rats per dose group) by subcutaneous injection for 14 days.
Male Sprague Dawley rats were purchased from Charles River Laboratories, where 6 weeks old at time of study initiation. Rats were group-housed (3 rats per box) in solid bottom cages. Food and water were provided ad libitum. Rats were dosed daily by subcutaneous injection. […] Blood was collected for serum chemistry by retro-orbital bleeds on Day 7 and by terminal cardiac puncture on Day 14. For urine collection, rats were housed in metabolic cages for 6 hours. Toxicokinetics was evaluated on Day 1 and Day 14 (S4 Fig). Blood was obtained by retro-orbital bleeding at 0, 0.25, 0.75, 1.5, 4, 7, 24 hours post-dose. Rats were euthanized on Day 14, 24 hours after the last dose. Body weights were measured on Days 3, 6, 9, 12 and 14. Endpoints to evaluate kidney function included serum chemistry (BUN and creatinine; Day 7 and Day 14), urine biomarkers (albumin, clusterin, cystatin C, osteopontin, KIM1, and alpha GST; Day 6 and Day 9), hematology (Day 14) and histopathology. For histopathology, kidney, liver, and bone marrow were evaluated. Samples collected for histopathology were sectioned at 5 μm, stained with hematoxylin and eosin (H&E), and examined by a board certified veterinary pathologist. BUN, creatine and hematology parameters were measured using a HESKA veterinary system (Loveland, CO). Urine samples were assayed using MSD electrochemiluminescent immunoassay. Samples were analyzed in triplicate using a Sector Imager 6000 instrument (MSD, Rockville, Maryland). Kits used were the Rat Kidney Injury Panel 1 (albumin, Kim-1, NGAL/lipocalin-2, osteopontin), the Argutus Acute Kidney Injury Panel (α-GST, GSTYb1, RPA-1) and the Clusterin Test Kit (MSD), according to the manufacturer’s instructions. Urinary biomarker concentrations were normalized to urinary creatinine to account for differences in urine production and flow rates.

[1] = Pharmacokinetics of aminoglycosides in the rat; conditions: sc, 10 mg/kg
Method: Test compounds were dissolved in PBS at 1 mg/mL and administered subcutaneously in a volume of 10 mL/kg to deliver a dose of 10 mg/kg. […] At 24 hours, the rat was euthanized and in addition to blood, quadriceps and kidney tissues were collected for subsequent analysis.
Blood was collected into tubes containing dipotassium ethylenediaminetetraacetic acid (K2 EDTA) as the anticoagulant and rotated at room temperature until the blood was centrifuged and the plasma recovered for subsequent analysis by liquid chromatography with tandem mass spectroscopy (LC-MS/MS). Noncompartmental toxicokinetic parameters were determined using Phoenix WinNonLin version 6.1 (Pharsight Corporation, Carey NC).
The concentrations of test compound in plasma, kidney and muscle were quantified by liquid chromatography-tandem mass spectrometry (LC-MS/MS). Briefly, the plasma and tissue homogenate samples were treated with acetonitrile-methanol mixture containing an internal standard that is a close analog of the test compounds. The treated plasma and […] homogenate samples were centrifuged and the supernatant was collected and analyzed using electro-spray LC-MS/MS.

[2] = test system: fLuc mRNA harboring a UGA nonsense mutation at codon 190 (fLuc-190-NS); type: biochemical, rabbit
Excerpt: ThefLuc-190-NS assay is an in vitro rabbit reticulocyte lysate translation of an fLuc mRNA harboring a UGA nonsense mutation at codon 190 (fLuc-190-NS). It is believed that positively charged aminoglycosides are poorly taken up by cells, and we used this cell-free readthrough assay to eliminate the potential variable of cell uptake when measuring readthrough potency. […] Readthrough protein was detected using a HA-HIS MSD immunoassay described previously.
This cell-free translation assay used synthetic LUC mRNAs harboring an EMCV IRES and LUC codon 190-UGA premature stop codon prepared using the MegaScript in vitro transcription kit (Ambion). Translation reactions were done with the Rabbit Reticulocyte Lysate System (Promega) with 100 ng RNA and increasing concentrations of aminoglycosides. The amount of luminescence produced was determined after approximately 4 hours using a Viewlux CCD imager (Perkin-Elmer). Fold suppression over background was calculated as (aminoglycoside light units/PBS light units).

[3] = test system: zebrafish neuromasts (hair cells); assay: Neuromast toxicity assay (DASPEI staining); conditions: read-out: Neuromast CC50; individual determinations (S1 File)
Method: All neuromast cytotoxicity assays were done at Biobide–BBD Biophenix SL (Gipuzkoa, Spain). […] Compounds were tested at 5 doses. After 24 hours of exposure embryos were incubated in DASPEI (2-(4-(dimethylamino)styryl) -N-Ethylpyridinium Iodide) for neuromast staining. Images of each embryo were taken and neuromasts counted. A compound was classified as ototoxic when the number of neuromasts in the treated group was less than that in the untreated control group (One Way ANOVA, multiple comparisons vs. vehicle).

[4] = test system: activated human peripheral blood mononuclear cells (PBMCs); assay: Cytotoxicity in stimulated PBMCs (CellTitre-Glo ATP); conditions: for CC50: read-out: Stimulated PBMC CC50, individual determinations (S1 File)
Excerpt: (§1) When considering compounds for potential readthrough therapy it is important to monitor cellular and animal safety. In order to determine the most promising compounds to further evaluate in in vivo safety, we measured cytotoxicity in two different cell types. We used activated human peripheral blood mononuclear cells (PBMCs) (Table 2 and Fig 2D and 2E). PBMCs are a primary cell that when activated with phytohaemagglutinin (PHA) expand quickly and are commonly used as an in vitro surrogate for rapidly growing cells in the human body to evaluate cytotoxicity. Prior to advancing compounds into human studies, safety evaluation in rodents is performed. As an in vitro surrogate for rodent toxicity, we used primary mouse myoblasts.
(§2) Frozen human Peripheral Blood Mononuclear Cells (PBMCs) were obtained from […] (Alameda, CA, Cat# PB003F) from a single donor. […] Plates were incubated at 37°C with 5% CO2 for 4 hours prior to compound treatment. Compounds were serially diluted and added to the plates. Plates were incubated at 37°C, 5% CO2 incubator, for 72 hours prior to determinations of ATP levels. Cell viability was determined using a chemiluminescent assay to monitor adenosine triphosphate (ATP) levels in live cells (CellTitre-Glo; CTG; Promega, Cat#G7571). Methods were performed per the manufacturer’s instructions.

[5] = as above; conditions: human
Excerpt: as §1, §2

[6] = 10 mg/kg daily s.c. 14 days, 6 kidneys examined
[7] = 20 mg/kg daily s.c. 14 days, kidneys examined: X2 6, G418 3
[8] = 40 mg/kg daily s.c. 14 days, 6 kidneys examined, listed as X2
[9] = 40 mg/kg daily s.c. 14 days, 6 kidneys examined, listed as gentamicin X2
[10] = AVERAGE (S1 File), unit not given for EC5X
[11] = individual experiments (S1 File)
[12] = individual experiments (S1 File), unit not printed for EC5X (EC2X of the sheet in uM)
[13] = Stimulated PBMC (CC50), PHA/IL-2 stimulated, 72 hours, average ± SD
[14] = Stimulated PBMC CC50, AVERAGE (S1 File)

CN[C@@H]1[C@@H](O)[C@@H](O[C@@H]2[C@@H](O)[C@H](O[C@H]3O[C@H](CO)[C@@H](O)[C@H](O)[C@H]3N)[C@@H](N)C[C@H]2N)OC[C@]1(C)O (stereo in doubt) [Gentamicin X2, gentamicin X2]
Animals completed study (Male Sprague Dawley rats; 10 mg/kg daily s.c. 14 days): 6
Kidneys: Mineralization (number of kidneys) (Male Sprague Dawley rats; [6]): 0
Kidneys: Pelvic dilation (number of kidneys) (Male Sprague Dawley rats; [6]): 0
Kidneys: Tubular necrosis (number of kidneys) (Male Sprague Dawley rats; [6]): 2
Animals completed study (Male Sprague Dawley rats; 20 mg/kg daily s.c. 14 days): 6
Kidneys: Mineralization (number of kidneys) (Male Sprague Dawley rats; [7]): 0
Kidneys: Pelvic dilation (number of kidneys) (Male Sprague Dawley rats; [7]): 1
Kidneys: Tubular necrosis (number of kidneys) (Male Sprague Dawley rats; [7]): 2
effect on body weight (Male Sprague Dawley rats; 20 mg/kg daily s.c., 14 days): did not affect body weight
Animals completed study (Male Sprague Dawley rats; 40 mg/kg daily s.c. 14 days): 6
Kidneys: Mineralization (number of kidneys) (Male Sprague Dawley rats; 40 mg/kg daily s.c. 14 days, 6 kidneys examined): 0
Kidneys: Pelvic dilation (number of kidneys) (Male Sprague Dawley rats; [8]): 4
Kidneys: Tubular necrosis (number of kidneys) (Male Sprague Dawley rats; [8]): 4
Kidneys: Pelvic dilation (number of kidneys) (Male Sprague Dawley rats; [9]): four of six kidneys
Kidneys: Tubular necrosis (number of kidneys) (Male Sprague Dawley rats; [9]): four of six kidneys
effect on body weight (Male Sprague Dawley rats; 40 mg/kg daily s.c., 14 days): only slightly reduced body weight
hematology: numbers of red and white blood cells or platelets vs vehicle (Male Sprague Dawley rats): no change; also recorded: no obvious differences across groups
accumulation over time (toxicokinetics) (Male Sprague Dawley rats): no accumulation
tolerability (Male Sprague Dawley rats; all dose levels, 14 days daily s.c.): well-tolerated at all dose levels
rats found dead or euthanized (Male Sprague Dawley rats; any of the three dose groups (10, 20, 40 mg/kg), 14 days): No rats were found dead or euthanized
histopathology of liver and bone marrow (Male Sprague Dawley rats): No histopathology findings
urine lipocalin (Male Sprague Dawley rats): not affected
urine albumin, clusterin, cystatin C and osteopontin (Male Sprague Dawley rats): not increased
concentration at 24 h ([1]; kidney): 7000 ± 1000 ng/g
AUC ([1]; plasma): 13 µg·h/mL
AUC(0-t) ([1]; plasma): 13 µg·h/mL
Cmax ([1]; plasma): 5.6 µg/mL
Tmax ([1]; plasma): 0.5 h
concentration at 24 h ([1]; plasma): ≤ 1 ng/g
half-life ([1]; plasma): 2.6 h
concentration at 24 h ([1]; quadriceps): ~40 ng/g
fLuc-190-NS EC2X ([2]; AVERAGE (S1 File)): 0.0288 µM
fLuc-190-NS MaxFold ([2]; AVERAGE (S1 File)): 195.3
fLuc-190-NS EC5X [2, 10]: 0.0696
fLuc-190-NS EC2X ([2]; cell-free, average ± SD): 0.029 ± 0.009 µM
fLuc-190-NS MaxFold ([2]; cell-free, average ± SD): 195 ± 18 fold
fLuc-190-NS EC2X [2, 11]: 0.0300 µM and 0.0373 µM and 0.0192 µM
fLuc-190-NS MaxFold [2, 11]: 193.99 and 177.60 and 214.25
fLuc-190-NS EC5X [2, 12]: 0.0904 and 0.0449 and 0.0734
CC50 [3]: 8.7 µM and 19 µM
safety window (average CC50 / average EC2X) ([4]; PBMCs, compared with NB84, NB124 or G418, 95% confidence limits): statistically better safety window
CC50 [4]: 2590 µM and 2630 µM and 2940 µM
CC50 at 72 h [5, 13]: 2970 ± 533 µM
CC50 at 72 h [5, 14]: 2970 µM
CC50 at 72 h ([5]; Stimulated PBMC CC50, individual determinations (S1 File)): 3740 µM

CN[C@@H]1[C@@H](O)[C@@H](O[C@@H]2[C@@H](O)[C@H](O[C@H]3O[C@H]([C@@H](C)O)[C@@H](O)[C@H](O)[C@H]3N)[C@@H](N)C[C@H]2N)OC[C@]1(C)O [G418, reference compound]
Animals completed study (Male Sprague Dawley rats; 10 mg/kg daily s.c. 14 days): 6
Kidneys: Mineralization (number of kidneys) (Male Sprague Dawley rats; [6]): 1
Kidneys: Pelvic dilation (number of kidneys) (Male Sprague Dawley rats; [6]): 2
Kidneys: Tubular necrosis (number of kidneys) (Male Sprague Dawley rats; [6]): 4
Animals completed study (Male Sprague Dawley rats; 20 mg/kg daily s.c. 14 days): 3
Kidneys: Mineralization (number of kidneys) (Male Sprague Dawley rats; [7]): 0
rats euthanized or found dead (Male Sprague Dawley rats; 20 mg/kg daily s.c., 14 days, 6 rats): three rats were either euthanized or found dead
creatinine and blood urea nitrogen (BUN) levels (Male Sprague Dawley rats; 20 mg/kg, Days 7 and 14, p<0.05 vs vehicle): significantly elevated
hematology: numbers of red and white blood cells or platelets vs vehicle (Male Sprague Dawley rats): no obvious differences across groups
accumulation over time (toxicokinetics) (Male Sprague Dawley rats): no accumulation
urine alpha-GST levels (Male Sprague Dawley rats; G418 20 mg/kg compared to gentamicin X2 40 mg/kg): greatest decrease
histopathology of liver and bone marrow (Male Sprague Dawley rats): No histopathology findings
urine lipocalin (Male Sprague Dawley rats): not affected
urine albumin, clusterin, cystatin C and osteopontin (Male Sprague Dawley rats): increased
AUC ([1]; in vivo): 15 µg·h/mL
AUC(0-t) ([1]; in vivo): 15 µg·h/mL
Cmax ([1]; in vivo): 7.4 µg/mL
Tmax ([1]; in vivo): 0.33 h
half-life ([1]; in vivo): 1.5 h
concentration at 24 h ([1]; in vivo, Kidney levels, 10 mg/kg subcutaneous, 24 hours post-dose, mean ± SD of three rats): 12000 ± 3000 ng/g
concentration at 24 h ([1]; in vivo, levels in the quadriceps, 10 mg/kg subcutaneous, 24 hours after dosing): ~40 ng/g
concentration at 24 h ([1]; in vivo, plasma levels, 10 mg/kg subcutaneous, 24 hours after dosing, at or below lower limit of quantification): ≤ 1 ng/g
fLuc-190-NS EC2X ([2]; AVERAGE (S1 File)): 0.0064 µM
fLuc-190-NS MaxFold ([2]; AVERAGE (S1 File)): 53.0
fLuc-190-NS EC5X [2, 10]: 0.0260
fLuc-190-NS EC2X ([2]; cell-free, average ± SD): 0.0064 ± 0.0002 µM
fLuc-190-NS MaxFold ([2]; cell-free, average ± SD): 53 ± 2 fold
fLuc-190-NS EC2X [2, 11]: 0.0067 µM and 0.0063 µM
fLuc-190-NS MaxFold [2, 11]: 51.05 and 54.30 and 53.65
fLuc-190-NS EC5X [2, 12]: 0.0261 and 0.0252 and 0.0267
CC50 [3]: 3.6 µM
CC50 [4]: 270 µM and 289 µM and 294 µM and 295 µM and 372 µM and 440 µM and 458 µM and 473 µM and 841 µM and 853 µM and 914 µM and 1060 µM
CC50 [5, 13]: 546 ± 286 µM
CC50 [5, 14]: 546 µM
